# Test results published in publication PMC4035770 (Pharmaceuticals, 2014).
# Where a name gives a salt, the structure may show the parent alone.
# Tests used:
# [1] = Screening incubation in USP simulated gastric fluid (SGF); details: incubation 37 °C, one hour, n = 2; <LOD = bupropion, its metabolites or other prodrugs not detected; LOD 0.1 ng/mL
# Procedure: USP simulated gastric fluid preparation. Sodium chloride (0.02 g) and purified pepsin (0.032 g) that is derived from porcine stomach mucosa with an activity of 800 to 2,500 units per mg of protein were dissolved in 0.07 mL of concentrated hydrochloric acid and sufficient water to make 10 mL.
# (§1) Pepsin is most efficient at cleaving peptide bonds between hydrophobic and aromatic amino acids such as phenylalanine, tryptophan and tyrosine. In order to simulate the pH and digestive enzymes of the stomach, USP simulated gastric fluid (SGF) was used. Conditions in the intestine were simulated using USP simulated intestinal fluid (SIF).
# (§2) One hour metabolism or hydrolysis was considered to be sufficient time to generate detectable levels of metabolites, bearing in mind the likely exposure time in vivo. A blank media was used in each analysis to subtract a background from each LC-MS sample chromatogram. A t0 sample was also used to identify impurities related to each prodrug.
# (§3) After one hour incubation of each compound in the selected media, the mixture was quenched with acetonitrile and the sample was centrifuged to remove precipitated proteins. The supernatant solution was analyzed immediately by LC-MS using data dependent acquisition analysis.
# (§4) This transformation is commonly used to assess activity of oxidative enzyme CYP2B6 in human liver and intestinal microsomes. […] It was important to report if any of the other prodrugs were detected if for instance a possible multistep-prodrug was found.
# [2] = Screening incubation in USP simulated intestinal fluid (SIF); details: incubation 37 °C, one hour, n = 2; <LOD = bupropion, its metabolites or other prodrugs not detected; LOD 0.1 ng/mL
# Procedure: USP simulated intestinal fluid preparation. Monobasic potassium phosphate (0.068 g) was dissolved in 2.5 mL of water and mixed. Sodium hydroxide (0.77 mL of 0.2 M) and water (5.0 mL) were added. Pancreatin (0.1 g) was added and the pH adjusted with either 0.2 M sodium hydroxide or 0.2 M hydrochloric acid to a pH of 6.8 ± 0.1. The solution was diluted to 10 mL with water.
# as §1, §2, §3, §4
# [3] = Microsomal metabolic stability screen, pooled human intestinal microsomes (HIM); format: in vitro ADME; details: 10 µM prodrug, 0.02 mg/mL HIM, NADPH regenerating system, 37 °C, 60 min, n = 2; LOD 0.1 ng/mL
# Procedure: Human intestinal microsome (HIM) stock solution preparation. HIM (0.2 mL) stock was added to PBS solution (9.8 mL). Final concentration; 0.2 mg/mL.
# (§5) Microsomes, NADPH regenerating solutions A and B were thawed rapidly to 37 °C, then kept on wet ice until ready for use. A stock solution of the prodrug (5 mM) was prepared in ACN. To a 1.7 mL microcentrifuge tube in a 37 °C water bath was added the phosphate buffered saline solution (349 µL), the NADPH regenerating solution A (50 µL), the NADPH regenerating solution B (50 µL), and the prodrug solution (1 µL). After incubation for 5 min, microsome solution (50 µL) was added and the metabolism was initiated. The tube was vortex mixed. The final concentrations in this solution was 10 µM prodrug, 0.1 mg/mL HLM or 0.02 mg/mL HIM, 1.3 mM NADP^+, 0.4 U/mL glucose-6-phosphate dehydrogenase and 0.2% organic solvent. This solution was incubated for 60 min at 37 °C. The reaction was quenched by addition of acetonitrile (500 µL). The mixture was centrifuged at 10,000 × g for 10 min. The supernatant was analyzed by LC-MS analysis.
# The intestinal cells contain cytochome P450 enzymes, flavin monoxygenases, esterases and UDP glucuroyl transferases. Condition III involved the use of pooled human intestinal microsomes (HIM) in order to simulate the potential metabolism that occurs during absorption and passage through the intestinal wall.
# [4] = Microsomal metabolic stability screen, pooled human liver microsomes (HLM); format: in vitro ADME; details: 10 µM prodrug, 0.1 mg/mL HLM, NADPH regenerating system, 37 °C, 60 min, n = 2; LOD 0.1 ng/mL
# Procedure: Human liver microsome (HLM) stock solution preparation. HLM (0.5 mL) stock was added to PBS solution (9.5 mL). Final concentration; 1 mg/mL. The PBS solution was prepared by addition of one USP PBS tablet (Sigma-Aldrich catalogue number P4417) dissolved in 200 mL deionised water.
# as §5
# After passing through the intestinal membrane into the portal circulation the prodrug quickly enters the liver. This metabolic condition was simulated in the present work by using pooled human liver microsomes (HLM).
# [5] = Screening incubation in pooled human plasma (PHP); format: in vitro ADME; details: incubation 37 °C, one hour, n = 2; <LOD = bupropion, its metabolites or other prodrugs not detected; LOD 0.1 ng/mL
# From the text: Pooled human plasma solution preparation. Citrated human plasma was pooled together from three separate donors.
# Finally, pooled human plasma (PHP) was used to evaluate the prodrug stability/activation in blood since the plasma fraction contains much of the hydrolase activity in blood.
# [6] = Michaelis-Menten kinetics of bupropion formation in pooled human liver microsomes; format: in vitro ADME; details: pooled HLM 0.1 mg/mL, substrate 1–500 µM, 20 min, 37 °C, n = 6
# Procedure: Microsomes, NADPH regenerating solutions A and B were thawed rapidly to 37 °C, and then kept on ice until ready for use. Substrate solutions were prepared (1–500 µM) where the maximum concentration of DMSO was 1%, and the concentration of microsomes, NADPH regenerating solution B and phosphate buffer was fixed. After incubation for 5 min, NADPH regenerating solution A was added and the metabolism was initiated. Final volume was 100 μL. The tube was inverted twice and vortex mixed. The final concentrations of prodrug in this solution was 1–500 µM, HLM (0.1 mg/mL) or HIM (0.02 mg/mL), NADP^+ (1.3 mM), glucose-6-phosphate dehydrogenase (0.4 U/mL) and 1.0% DMSO. This solution was incubated for 20 min at 37 °C. The reaction was quenched by addition of 100 µL of acetonitrile. The mixture was centrifuged at 10,000 × g for 10 min. The supernatant was analyzed by LC-MS analysis.
# [7] = target: Muscarinic non -selective, central; assay: Pharmacological screen, muscarinic receptor binding; details: for Ki: Cheng and Prusoff
# Nicotinic acetylcholine = assay: Pharmacological screen, nicotinic acetylcholine receptor binding
# Procedure: 2.4. Plasma LLOQ/Precision […]
# of 10 ng/mL. […] ACN (200 µL) […]
# was added and the solution was vortex mixed. The remaining mixture was centrifuged at 10,000 rpm […]
# The final concentration was 1 ng/mL. […]
# signal to noise ratio of three.
# 2.6. Brain LLOQ Accuracy/Precision
# Aliquots (5 × 200 µL) were […]
# transferred to 1.5 mL microcentrifuge tubes.
# ACN (300 µL) was added and […]
# the solution was vortex mixed. […] 200 µL
# The solution was vortex mixed again and analysed by HPLC. Final concentrations were 12.5, 125 ng/mL.
# 2.7. Pharmacological Screening of N-Methyl Bupropion and Bupropion […]
# nicotinic acetylcholine receptor [5,6] and SERT [7,8]. The specific nicotinic acetylcholine assays are […]
# and nicotinic acetylcholine α7 [12].
# 3. Results Method Validation […]
# diluent solutions separately.
# [8] = target: T1, Dopamine active transporter (DAT) (Homo sapiens, UniProt Q01959); assay: Pharmacological screen, dopamine transporter; format: binding
# T1 construct: MDS Pharma Services Taiwan
# [9] = target: T2, Norepinephrine transporter (NET) (Homo sapiens, UniProt P23975); assay: Pharmacological screen, norepinephrine transporter; format: binding; details: for nH (Hill coefficient): NET
# T2 construct: MDS Pharma Services Taiwan
# [10] = target: T3, Serotonin transporter (SERT) (Homo sapiens, UniProt P31645)
# [11] = target: T3, Serotonin transporter (SERT); assay: biochemical
# [12] = Aqueous pH stability profile at 40 °C
# [13] = cited from earlier work
# [14] = set-up: method as in earlier work; details: plasma samples; cited from earlier work
# T2 sequence (P23975 whole entry): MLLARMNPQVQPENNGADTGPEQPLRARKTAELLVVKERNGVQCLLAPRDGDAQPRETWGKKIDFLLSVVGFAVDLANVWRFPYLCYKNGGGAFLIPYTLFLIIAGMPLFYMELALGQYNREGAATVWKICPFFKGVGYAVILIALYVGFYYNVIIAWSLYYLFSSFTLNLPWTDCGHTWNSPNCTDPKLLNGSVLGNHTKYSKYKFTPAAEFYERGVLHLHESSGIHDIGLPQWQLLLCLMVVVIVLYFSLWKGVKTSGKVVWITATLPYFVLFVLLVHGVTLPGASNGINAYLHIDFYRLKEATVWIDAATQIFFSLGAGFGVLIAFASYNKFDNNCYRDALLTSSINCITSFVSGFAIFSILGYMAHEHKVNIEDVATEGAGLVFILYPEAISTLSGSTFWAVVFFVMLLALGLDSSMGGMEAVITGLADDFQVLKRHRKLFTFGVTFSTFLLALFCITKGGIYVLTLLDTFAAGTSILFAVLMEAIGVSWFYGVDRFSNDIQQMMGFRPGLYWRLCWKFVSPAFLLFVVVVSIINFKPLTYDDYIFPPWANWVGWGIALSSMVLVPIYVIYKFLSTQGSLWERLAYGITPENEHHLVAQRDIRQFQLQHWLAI
# T1 sequence (Q01959 whole entry): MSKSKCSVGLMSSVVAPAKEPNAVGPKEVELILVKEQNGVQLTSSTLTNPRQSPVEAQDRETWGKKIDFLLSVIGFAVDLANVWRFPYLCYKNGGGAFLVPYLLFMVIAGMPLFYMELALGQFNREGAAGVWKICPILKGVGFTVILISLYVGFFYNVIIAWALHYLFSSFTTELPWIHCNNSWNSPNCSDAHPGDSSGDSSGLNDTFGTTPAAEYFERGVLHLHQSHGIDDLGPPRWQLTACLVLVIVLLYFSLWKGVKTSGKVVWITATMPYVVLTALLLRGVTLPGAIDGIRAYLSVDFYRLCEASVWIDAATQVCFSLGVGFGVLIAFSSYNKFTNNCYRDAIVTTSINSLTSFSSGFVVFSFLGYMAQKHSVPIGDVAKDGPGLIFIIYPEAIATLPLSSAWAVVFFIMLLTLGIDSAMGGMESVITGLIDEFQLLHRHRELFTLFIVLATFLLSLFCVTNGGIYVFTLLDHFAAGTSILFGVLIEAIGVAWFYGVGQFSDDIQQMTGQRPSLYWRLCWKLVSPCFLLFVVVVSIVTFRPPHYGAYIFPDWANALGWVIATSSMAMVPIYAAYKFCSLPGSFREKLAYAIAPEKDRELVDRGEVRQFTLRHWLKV
# T3 sequence (P31645 whole entry): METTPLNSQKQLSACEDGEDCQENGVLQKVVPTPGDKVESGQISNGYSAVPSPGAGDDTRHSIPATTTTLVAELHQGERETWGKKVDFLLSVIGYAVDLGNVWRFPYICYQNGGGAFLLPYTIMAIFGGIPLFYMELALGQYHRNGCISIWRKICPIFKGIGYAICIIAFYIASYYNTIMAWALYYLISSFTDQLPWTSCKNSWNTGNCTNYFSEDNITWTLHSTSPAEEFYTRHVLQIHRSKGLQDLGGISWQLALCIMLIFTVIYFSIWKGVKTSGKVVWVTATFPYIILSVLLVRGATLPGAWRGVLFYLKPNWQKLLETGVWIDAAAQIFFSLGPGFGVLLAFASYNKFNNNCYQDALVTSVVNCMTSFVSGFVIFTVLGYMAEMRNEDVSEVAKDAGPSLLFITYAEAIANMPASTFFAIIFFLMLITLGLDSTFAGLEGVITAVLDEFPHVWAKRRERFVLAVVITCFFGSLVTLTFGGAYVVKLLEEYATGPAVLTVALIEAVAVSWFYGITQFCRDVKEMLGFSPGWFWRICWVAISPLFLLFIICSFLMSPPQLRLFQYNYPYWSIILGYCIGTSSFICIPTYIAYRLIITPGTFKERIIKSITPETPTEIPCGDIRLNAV
smiles,measurement,setting,value
"CC(C(=O)c1cccc(Cl)c1)N(C)C(C)(C)C (racemic) [Compound 4, Rac-N-methyl bupropion]",Primary product detected in media SGF,[1],<LOD
same,Primary product detected in media SIF,[2],<LOD
same,Primary product detected in media HIM,[3],bupropion was detected
same,Primary product detected in media HLM,[4],bupropion was detected
same,Primary product detected in media PHP,[5],<LOD
same,Vmax of bupropion formation,[6],900.4 ± 73.8 pmol/min/mg HLM
same,Vmax of bupropion formation,[6]; listed as N-methylbupropion,900.4 ± 74 pmol/min/mg HLM
same,IC50,[7],39.3 µM
same,Ki,[7],12.3 µM
same,IC50,Nicotinic acetylcholine; Nicotinic acetylcholine,71.6 µM
same,Ki,"Nicotinic acetylcholine; Nicotinic acetylcholine, Cheng and Prusoff",49.2 µM
same,"activity at the nicotinic acetylcholine receptors, in words",Nicotinic acetylcholine; compared with bupropion,more active than bupropion
same,IC50,[8],3.71 µM
same,Ki,[8],2.95 µM
same,nH (Hill coefficient),[8]; DAT,0.924
same,"activity as dopamine reuptake inhibitor, in words",[8]; compared with bupropion,less active than bupropion
same,IC50,[9],57.9 µM
same,Ki,[9],54.4 µM
same,nH (Hill coefficient),[9],0.764
same,"activity as norepinephrine reuptake inhibitor, in words",[9]; compared with bupropion,less active than bupropion
same,"effect on the serotonin transporter system, in words",[10],little effect
same,IC50,[11],> 100 µM
same,aqueous degradation rate above pH 5,[12]; above pH 5,degraded faster than bupropion
same,aqueous degradation rate above pH 12,[12],rate of degradation decreased quite dramatically
same,aqueous stability / degradation rate below pH 5,[12],stable
"CC(NC(C)(C)C)C(=O)c1cccc(Cl)c1 (racemic) [Bupropion, Rac-bupropion hydrochloride, reference compound]",IC50,[7],86.5 µM
same,Ki,[7],27 µM
same,IC50,Nicotinic acetylcholine; Nicotinic acetylcholine,> 100 µM
same,nH (Hill coefficient),[9],0.835
same,aqueous stability profile above pH 5,[13],poor stability profile
same,sample stability in plasma (pH),[14],stable at low pH
same,aqueous degradation rate above pH 12,[12],rate of degradation increases significantly
same,aqueous stability / degradation rate below pH 5,[12],stable
